The source of these data is ChEMBL document CHEMBL5728427, “Apoptosis signal-regulating kinase 1 inhibitors and methods of use thereof” (2021).

This assay addresses T1, Mitogen-activated protein kinase kinase kinase 5 (Homo sapiens, UniProt Q99683).
T1 sequence (Q99683 whole entry): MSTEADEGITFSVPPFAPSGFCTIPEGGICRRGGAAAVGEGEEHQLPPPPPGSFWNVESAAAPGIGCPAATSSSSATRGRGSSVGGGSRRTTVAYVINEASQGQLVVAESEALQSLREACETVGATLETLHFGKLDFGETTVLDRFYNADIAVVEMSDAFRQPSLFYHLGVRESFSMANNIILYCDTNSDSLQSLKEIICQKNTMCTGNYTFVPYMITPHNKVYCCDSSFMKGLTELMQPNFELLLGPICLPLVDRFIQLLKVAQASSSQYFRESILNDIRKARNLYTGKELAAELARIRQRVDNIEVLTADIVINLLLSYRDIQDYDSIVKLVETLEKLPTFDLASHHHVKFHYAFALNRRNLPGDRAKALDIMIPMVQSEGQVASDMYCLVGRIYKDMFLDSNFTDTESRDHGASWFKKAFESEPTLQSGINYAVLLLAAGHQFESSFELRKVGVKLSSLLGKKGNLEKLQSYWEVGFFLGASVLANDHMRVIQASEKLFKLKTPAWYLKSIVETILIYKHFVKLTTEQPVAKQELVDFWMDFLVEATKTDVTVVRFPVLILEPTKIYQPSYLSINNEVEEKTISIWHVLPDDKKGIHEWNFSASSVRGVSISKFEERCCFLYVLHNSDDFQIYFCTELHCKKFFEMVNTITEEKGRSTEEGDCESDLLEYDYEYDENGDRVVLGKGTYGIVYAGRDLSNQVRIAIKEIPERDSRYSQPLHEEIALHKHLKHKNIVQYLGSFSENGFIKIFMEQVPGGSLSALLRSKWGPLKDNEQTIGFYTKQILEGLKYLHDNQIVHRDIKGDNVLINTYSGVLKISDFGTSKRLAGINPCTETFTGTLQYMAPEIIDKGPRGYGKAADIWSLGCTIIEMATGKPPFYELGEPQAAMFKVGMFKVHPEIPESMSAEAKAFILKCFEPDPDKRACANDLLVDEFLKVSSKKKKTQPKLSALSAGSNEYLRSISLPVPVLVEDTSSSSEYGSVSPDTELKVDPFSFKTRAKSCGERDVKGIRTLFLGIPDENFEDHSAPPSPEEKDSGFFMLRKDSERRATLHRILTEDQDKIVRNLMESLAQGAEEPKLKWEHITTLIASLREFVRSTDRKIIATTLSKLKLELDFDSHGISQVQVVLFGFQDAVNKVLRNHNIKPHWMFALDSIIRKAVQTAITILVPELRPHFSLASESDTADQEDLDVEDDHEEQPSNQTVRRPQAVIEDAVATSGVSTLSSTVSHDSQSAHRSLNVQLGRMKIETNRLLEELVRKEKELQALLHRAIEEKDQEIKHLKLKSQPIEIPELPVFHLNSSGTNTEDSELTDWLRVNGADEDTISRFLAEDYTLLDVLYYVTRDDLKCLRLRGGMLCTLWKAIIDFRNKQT
The experiment in a line: HTRF KinEASE Assay: ASK1 was purchased from Thermofisher (Catalogue #PV4011), ATP was purchased from Sigma (Catalogue #A7699), HTRF® KinEASE™ Assay System was obtained from Cisbio (Bedford, Mass.). ½ Area plate was purchased from Perkin Elmer (Catalogue ##6005560). HTRF® KinEASE™-STK is a generic method for measuring serine/threonine kinase activities using a time-resolved fluorescence resonance energy transfer (TR-FRET) immunoassay. The IC50 value for each compound was determined in the presence of compound (various concentration from 0 to 10 μM) and a fixed amount of ATP and peptide substrates. The test compound, 1 uM STK3 peptide substrate, and 5 nM of ASK1 kinase are incubated with kinase reaction buffer containing 50 mM HEPES pH 7.5, 0.01% BRIJ-35, 10 mM MgCl2, and 1 mM EGTA for 30 minutes. 100 uM ATP is added to start kinase reaction and incubated for 3 hours. The STK3-antibody labeled with Eu3+-Cryptate and 125 nM streptavidin-XL665 are mixed in a single addition with stop reagents provided by the Cisbio kit used to stop the kinase reaction. Fluorescence is detected using an Envision Multilabeled 2014 reader from PerkinElmer. The Fluorescence is measured at 615 nm (Cryptate) and 665 nm (XL665) and a ratio of 665 nm/615 nm is calculated for each well. The resulting TR-FRET is proportional to the phosphorylation level. Staurosporine was used as the positive control.

As to `Cc1cc(F)c(C(=O)Nc2cccc(-n3cnnc3)n2)cc1-n1cnc(C2CC2)c1`, the IC50 was more than 1000 nM.

Broadly, the IC50 is the midpoint of a concentration-inhibition curve.
